Data set [1] concerns HBeAg (surrogate marker for cccDNA) in HepDES19 cells. As to the kind of experiment: Engineered HepDES19 primary screen assay (HBeAg ELISA). Format: cell-based, HBV. Conditions: Hepatitis B virus, HepDES19, 120 h, read-out: IC50 (HBeAg level, HepDES19 primary screen assay), HepDES19 cells, 5 days compound incubation, HBeAg ELISA. The method, boiled down: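 IC50 values come from 4-parameter logistic fits of HBeAg ELISA signal, the cccDNA surrogate, with CCK-8 run in parallel for viability. Compounds at half-log dilutions with 1% DMSO were applied for 5 days at 37 °C to HepDES19 cells previously cultured 8 days without Tet.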

Data set [2] is described as follows: Human microsome stability assay. The settings on record: human liver microsomes, 1 μM test compound, 0.5 mg/mL microsomal protein, 37° C., pH 7.4, 0-30 minutes. Format: in vitro ADME. The method, boiled down: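 Parent compound remaining was measured by LC-MS/MS at 0, 3, 6, 9, 15 and 30 min, following ACN quench. Reactions held 1 μM compound and 0.5 mg/mL human liver microsomal protein in pH 7.4 phosphate buffer at 37 °C, started by NADPH regeneration (1 mM NADP, 1 mM MgCl2); controls lacked NADPH.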

For the compound `COc1cc(O[C@H]2C[C@@H](C(=O)NS(=O)(=O)C3CC3)C2)c(-c2cc(=O)c3cccc(Cl)c3o2)cc1Br` [Example B056-A, Cis-3-[4-bromo-2-(8-chloro-4-oxo-chromen-2-yl)-5-methoxy-phenoxy]-N-cyclopropylsulfonyl-cyclobutanecarboxamide], the IC50 in data set [1] is 9.44 µM. The “Clearance of Human microsome” value in data set [2] was found to be 0.389 L/h/kg.

Turning to `COc1cc(OC2CC(C(=O)NS(C)(=O)=O)C2)c(-c2cc(=O)c3cccc(Cl)c3o2)cc1OC` (stereo not drawn) [Example B057, 3-[2-(8-chloro-4-oxo-chromen-2-yl)-4,5-dimethoxy-phenoxy]-N-methylsulfonyl-cyclobutanecarboxamide], the IC50 in data set [1] worked out at 1.08 µM. Besides, the “Clearance of Human microsome” value in data set [2] is 0.369 L/h/kg.

Turning to `NS(=O)(=O)CCCOc1cc(C(F)(F)F)ccc1-c1cc(=O)c2cccc(Cl)c2o1` [Example B072, 3-[2-(8-chloro-4-oxo-chromen-2-yl)-5-(trifluoromethyl)phenoxy]propane-1-sulfonamide], in data set [1], the IC50 is 0.95 µM. Moreover, the “Clearance of Human microsome” value in data set [2] came out at 0.533 L/h/kg.

Turning to `O=C(O)[C@@H]1C[C@@H](Oc2cc(C(F)(F)F)ccc2-c2cc(=O)c3cccc(Cl)c3o2)CN1S(=O)(=O)C1CC1` [Example B077], the IC50 in data set [1] is 0.657 µM. In addition, the “Clearance of Human microsome” value in data set [2] was determined as 0.369 L/h/kg.

`O=C(O)[C@@H]1C[C@H](Oc2cc(C(F)(F)F)ccc2-c2cc(=O)c3cccc(Cl)c3o2)CN1S(=O)(=O)C1CC1` [Example B078, (2S,4S)-4-[2-(8-chloro-4-oxo-chromen-2-yl)-5-(trifluoromethyl)phenoxy]-1-cyclopropylsulfonyl-pyrrolidine-2-carboxylic acid]: in data set [1], the IC50 amounted to 0.541 µM. In addition, the “Clearance of Human microsome” value in data set [2] amounted to 0.369 L/h/kg.

Take `O=C(O)[C@@H]1C[C@H](Oc2cc(C(F)(F)F)ccc2-c2cc(=O)c3cccc(Cl)c3o2)CN1S(=O)(=O)c1ccccc1` [Example B080, (2S,4S)-1-(benzenesulfonyl)-4-[2-(8-chloro-4-oxo-chromen-2-yl)-5-(trifluoromethyl)phenoxy]pyrrolidine-2-carboxylic acid]: the IC50 in data set [1] was determined as 1.2 µM. Moreover, in data set [2], the “Clearance of Human microsome” value is 0.369 L/h/kg.

`Cc1cc(-c2cc(=O)c3cccc(Cl)c3o2)c(O[C@H]2C[C@@H](C(=O)O)N(S(=O)(=O)c3ccccc3)C2)cc1Cl` [Example B084, (2S,4S)-1-(benzenesulfonyl)-4-[5-chloro-2-(8-chloro-4-oxo-chromen-2-yl)-4-methyl-phenoxy]pyrrolidine-2-carboxylic acid]: the IC50 in data set [1] stood at 0.533 µM. In data set [2], the “Clearance of Human microsome” value turned out to be 0.369 L/h/kg.

For `O=C(O)[C@@H]1C[C@H](Oc2cc(Br)ccc2-c2cc(=O)c3cccc(Cl)c3o2)CN1C(=O)c1ccccc1` [Example B086], the IC50 in data set [1] was determined as 4.89 µM. Further, the “Clearance of Human microsome” value in data set [2] came to 0.369 L/h/kg.

For `O=C(O)[C@H]1C[C@H](Oc2cc(C(F)(F)F)ccc2-c2cc(=O)c3cccc(Cl)c3o2)CN1S(=O)(=O)c1ccccc1` [Example B087, (2R,4S)-1-(benzenesulfonyl)-4-[2-(8-chloro-4-oxo-chromen-2-yl)-5-(trifluoromethyl)phenoxy]pyrrolidine-2-carboxylic acid], the IC50 in data set [1] amounted to 3 µM. For the same compound, the “Clearance of Human microsome” value in data set [2] worked out at 0.369 L/h/kg.

As to `O=C(O)[C@H]1C[C@@H](Oc2cc(C(F)(F)F)ccc2-c2cc(=O)c3cccc(Cl)c3o2)CN1S(=O)(=O)c1ccccc1` [Example B088, (2R,4R)-1-(benzenesulfonyl)-4-[2-(8-chloro-4-oxo-chromen-2-yl)-5-(trifluoromethyl)phenoxy]pyrrolidine-2-carboxylic acid], the IC50 in data set [1] stood at 1.85 µM. The “Clearance of Human microsome” value in data set [2] was 0.369 L/h/kg.

As for `O=C(O)COCCCOc1cc(C(F)(F)F)ccc1-c1cc(=O)c2cccc(Cl)c2o1` [Example C001, 2-[3-[2-(8-chloro-4-oxo-chromen-2-yl)-5-(trifluoromethyl)phenoxy]propoxy]acetic acid], in data set [1], the IC50 came to 3.05 µM. Besides, the “Clearance of Human microsome” value in data set [2] was 0.369 L/h/kg.

On to `COC(=O)C1CC(OCCOc2cc(Br)ccc2-c2cc(=O)c3cccc(Cl)c3o2)C1` (stereo not drawn) [Example C003a, methyl 3-[2-[5-bromo-2-(8-chloro-4-oxo-chromen-2-yl)phenoxy]ethoxy]cyclobutanecarboxylate], for which the IC50 in data set [1] was determined as 0.4 µM. In addition, in data set [2], the “Clearance of Human microsome” value was 0.369 L/h/kg.

Regarding `O=C(O)COCCOc1cc(C(F)(F)F)ccc1-c1cc(=O)c2cccc(Cl)c2o1` [Example C005, 2-[2-[2-(8-chloro-4-oxo-chromen-2-yl)-5-(trifluoromethyl)phenoxy]ethoxy]acetic acid], the IC50 in data set [1] worked out at 17.7 µM. Further, the “Clearance of Human microsome” value in data set [2] turned out to be 0.485 L/h/kg.

Turning to `O=C(O)COCCCOc1cc(Cl)ccc1-c1cc(=O)c2cccc(Cl)c2o1` [Example C009, 2-[3-[5-chloro-2-(8-chloro-4-oxo-chromen-2-yl)phenoxy]propoxy]acetic acid], in data set [1], the IC50 is 2.66 µM. In addition, the “Clearance of Human microsome” value in data set [2] turned out to be 0.369 L/h/kg.

In the case of `COc1cc(OCCCOCC(=O)O)c(-c2cc(=O)c3cccc(Cl)c3o2)cc1OC` [Example C012, 2-[3-[2-(8-chloro-4-oxo-chromen-2-yl)-4,5-dimethoxy-phenoxy]propoxy]acetic acid], the IC50 in data set [1] is 5.26 µM. Besides, the “Clearance of Human microsome” value in data set [2] was found to be 0.369 L/h/kg.

Take `Cc1cc(-c2cc(=O)c3cccc(Br)c3o2)c(OCCCOCC(=O)O)cc1Cl` [Example C018, 2-[3-[2-(8-bromo-4-oxo-chromen-2-yl)-5-chloro-4-methyl-phenoxy]propoxy]acetic acid]: the IC50 in data set [1] was determined as 4.82 µM. For the same compound, the “Clearance of Human microsome” value in data set [2] came to 0.404 L/h/kg.

As for `COc1cc(-c2cc(=O)c3cccc(Cl)c3o2)c(OCCOCC(=O)O)cc1Br` [Example C020, 2-[2-[5-bromo-2-(8-chloro-4-oxo-chromen-2-yl)-4-methoxy-phenoxy]ethoxy]acetic acid], the IC50 in data set [1] is 5.55 µM. Further, in data set [2], the “Clearance of Human microsome” value stood at 0.369 L/h/kg.

For `Cc1cc(-c2cc(=O)c3cccc(Cl)c3o2)c(OCCOCC(=O)O)cc1Br` [Example C021, 2-[2-[5-bromo-2-(8-chloro-4-oxo-chromen-2-yl)-4-methyl-phenoxy]ethoxy]acetic acid], in data set [1], the IC50 amounted to 9.25 µM. Also, the “Clearance of Human microsome” value in data set [2] came out at 0.46 L/h/kg.

`COc1cc(OCCOCC(=O)O)c(-c2cc(=O)c3cccc(Cl)c3o2)cc1OC` [Example C022, 2-[2-[2-(8-chloro-4-oxo-chromen-2-yl)-4,5-dimethoxy-phenoxy]ethoxy]acetic acid]: in data set [1], the IC50 came out at 5.53 µM. Also, the “Clearance of Human microsome” value in data set [2] was found to be 0.369 L/h/kg.

As to `O=C(O)COCCOc1cc(OC(F)(F)F)ccc1-c1cc(=O)c2cccc(Cl)c2o1` [Example C023, 2-[2-[2-(8-chloro-4-oxo-chromen-2-yl)-5-(trifluoromethoxy)phenoxy]ethoxy]acetic acid], in data set [1], the IC50 is 3.99 µM. Besides, the “Clearance of Human microsome” value in data set [2] is 0.369 L/h/kg.

Consider `CC(CCOCC(=O)O)Oc1cc(C(F)(F)F)ccc1-c1cc(=O)c2cccc(Cl)c2o1` (stereo not drawn) [Example C024, 2-[3-[2-(8-chloro-4-oxo-chromen-2-yl)-5-(trifluoromethyl)phenoxy]butoxy]acetic acid], for which the IC50 in data set [1] came to 0.909 µM. Further, the “Clearance of Human microsome” value in data set [2] turned out to be 0.369 L/h/kg.

For `O=c1cc(-c2ncc(Br)cc2OCCO[C@H]2C[C@H](C(=O)O)C2)oc2c(Cl)cccc12` [Example C027], the IC50 in data set [1] came out at 1.8 µM. The “Clearance of Human microsome” value in data set [2] came out at 0.369 L/h/kg.

On to `O=c1cc(-c2ccc(Br)cc2OCCO[C@H]2C[C@@H](C(=O)O)C2)oc2c(Cl)cc(F)cc12` [Example C028, Cis-3-[2-[5-bromo-2-(8-chloro-6-fluoro-4-oxo-chromen-2-yl)phenoxy]ethoxy]cyclobutanecarboxylic acid], for which, in data set [1], the IC50 amounted to 3.32 µM. Besides, the “Clearance of Human microsome” value in data set [2] was found to be 0.531 L/h/kg.

Turning to `O=c1cc(-c2cc(Br)c(F)cc2OCCO[C@H]2C[C@@H](C(=O)O)C2)oc2c(Cl)cccc12` [Example C032-A, Cis-3-[2-[4-bromo-2-(8-chloro-4-oxo-chromen-2-yl)-5-fluoro-phenoxy]ethoxy]cyclobutanecarboxylic acid], the IC50 in data set [1] turned out to be 19.2 µM. For the same compound, the “Clearance of Human microsome” value in data set [2] worked out at 0.576 L/h/kg.

As to `CCOc1ccc(-c2cc(=O)c3cccc(Cl)c3o2)c(OCCO[C@H]2C[C@@H](C(=O)O)C2)c1` [Example C035-A, Cis-3-[2-[2-(8-chloro-4-oxo-chromen-2-yl)-5-ethoxy-phenoxy]ethoxy]cyclobutanecarboxylic acid], in data set [1], the IC50 was 12.5 µM. Further, the “Clearance of Human microsome” value in data set [2] was 0.518 L/h/kg.

`CCOc1ccc(-c2cc(=O)c3cccc(Cl)c3o2)c(OCCO[C@H]2C[C@H](C(=O)O)C2)c1` [Example C035-B, Trans-3-[2-[2-(8-chloro-4-oxo-chromen-2-yl)-5-ethoxy-phenoxy]ethoxy]cyclobutanecarboxylic acid]: in data set [1], the IC50 was 17.9 µM. Further, the “Clearance of Human microsome” value in data set [2] came out at 0.587 L/h/kg.

As to `O=c1cc(-c2cccc(F)c2OCCO[C@H]2C[C@@H](C(=O)O)C2)oc2c(Cl)cccc12` [Example C037-A, Cis-3-[2-[2-(8-chloro-4-oxo-chromen-2-yl)-6-fluoro-phenoxy]ethoxy]cyclobutanecarboxylic acid], the 50% inhibitory concentration (IC50) in data set [1] is 0.0975 µM. Moreover, in data set [2], the “Clearance of Human microsome” value was 0.369 L/h/kg.

The values above are taken from US11708344B2, “Flavone derivatives for the treatment and prophylaxis of hepatitis B virus disease” (Hoffmann-La Roche Inc., priority 2018, dated 2023).
